This is an account of results in patent publication US20240317741A1, “NAPHTHYRIDINE DERIVATIVE AS ATR INHIBITOR AND METHOD FOR PREPARING SAME” (WIGEN BIOMEDICINE TECHNOLOGY (SHANGHAI) CO., LTD., priority 2021, published 2024).

Where only a bound is given, the exact number is not on record here.

The subject of data set [1] is MIA PaCa-2 cells. Briefly: In-vitro anti-proliferative activity against MIA PaCa-2 cells. The format is cell-based. Particulars: Homo sapiens, 72 h after dosing, intracellular ATP content. As for the experimental part: MIA PaCa-2 cells were seeded on a 384-well plate at 3000 cells/well. After overnight adherence culture, DMSO or the compounds serially diluted 1:5 from 5 μM were added. […] The inhibition percentage of viable cells by the compounds was calculated by comparing with the DMSO group, and the IC50 value was calculated.

Data set [2] relates to Human colon cancer LOVO cells. Briefly: In vivo efficacy in LoVo model. Particulars: LoVo model in nude mice, 20 mpk BID PO, days 1-3, 8-10, 15-17 and day 21. Also on record: species or system nude mouse. As for the experimental part: After being subcultured, the cells were collected when they reached the desired amount. 1×10^7 LOVO cells were injected into the left dorsal side of each nude mouse, and the animals were randomly grouped for administration after tumors grew to 100-200 mm^3. The groups were as follows: a solvent control group of 8 mice and a compound group of 8 mice. The compounds were administered orally 3 days a week and interrupted for 4 days, for 21 consecutive days. The vehicle was a 0.5% MC suspension containing 1% tween-80. On Tuesday and Thursday each week, tumor volumes and body weight of the mice were measured, and the nude mice were sacrificed on day 21 after the administration. […] The toxicity of the compounds was evaluated according to the body weight of the mice.

Data set [3] can be described thus: Liver microsomal stability (human). The format is in vitro ADME. The settings on record: human liver microsomes, 1 μM compound, NADPH regeneration system, 37° C.; read-out: T1/2 (min) Human. As for the experimental part:
(§1) After 1 μM compound was incubated with 500 µg/mL of human or mouse liver microsomes and a NADPH regeneration system at 37° C. for different times, respectively, LC-MS-MS was used to analyze the remaining amount of the compound and calculate T1/2.

A short description of data set [4]: Liver microsomal stability (mouse). Type of data set: in vitro ADME. Particulars: mouse liver microsomes, 1 μM compound, NADPH regeneration system, 37° C.; read-out: T1/2 (min) Mouse. As for the experimental part: as §1
Data set [5] deals with MIA PaCa-2 cells. Briefly: In-vitro anti-proliferative activity in combination with gemcitabine against MIA PaCa-2 cells. The format is cell-based. The settings on record: in combination with 20 nM gemcitabine, 72 h after dosing. As for the experimental part:
MIA PaCa-2 cells were seeded on a 384-well plate at 3000 cells/well, and 20 nM gemcitabine was added. After overnight adherence culture, DMSO or the compounds serially diluted 1:5 from 100 nM were added. […] The inhibition percentage of viable cells by the compounds was calculated by comparing with the DMSO group, and the IC50 value was calculated.

The subject of data set [6] is Human colon cancer HT29 cells. Put plainly: In vivo efficacy in HT-29 model, alone and with gemcitabine. The settings on record: HT-29 model in nude mice, day 21. Also on record: species or system nude mouse. The method, then: After being subcultured, the cells were collected when they reached the desired amount. 1×10^7 HT29 cells were injected into the left dorsal side of each nude mouse, and the animals were randomly grouped for administration after tumors grew to 100-200 mm^3. The groups were as follows: a solvent control group of 6 mice, a single drug group of 15 mg/kg gemcitabine (GMC), and a combination group of 15 mg/kg gemcitabine and a compound. Gemcitabine was administered intraperitoneally with PBS as a vehicle once a week. The compounds were administered 3 days a week and interrupted for 4 days (3 on/4 off), for 21 consecutive days, and the vehicle was a 0.5% MC suspension containing 1% tween-80. On Tuesday and Thursday each week, tumor volumes and body weight of the mice were measured, and the nude mice were sacrificed on day 21 after the administration. […] The toxicity of the compounds was evaluated according to the body weight of the mice.

Data set [7] is described as follows: In vivo pharmacokinetic experiment in mice. The settings on record: female, CD-1, mouse, plasma; for Cmax: read-out: Cmax; for Tmax: read-out: Tmax; for Vd: read-out: Vdss. Also on record: species or system CD-1 female mice. The method, then: CD-1 female mice aged 7 to 10 weeks were intravenously administered and orally administered at a dose of 2 mg/kg and 10 mg/kg, respectively. The mice were fasted for at least 12 h before the administration and given food 4 h after the administration, and they were given ad libitum access to water during the experiment.
On the day of the experiment, animals in the intravenous group were administered the corresponding compound by single injection via the tail vein at an administration volume of 10 mL/kg, and animals in the oral group were administered the corresponding compound by single intragastric injection at an administration volume of 10 mL/kg. The animals were weighed before administration, and the administration volume was calculated according to the body weight. The sample collection time was 0.083 h, 0.167 h, 0.5 h, 1 h, 2 h, 4 h, 8 h and 24 h. About 200 μL of whole blood was collected through the orbital venous plexus at each time point and used to prepare plasma for concentration determination by high performance liquid chromatography-tandem mass spectrometry (LC-MS/MS). The plasma concentrations were processed using a non-compartmental model of Winnolin pharmacokinetic software, and the pharmacokinetic parameters were calculated using a linear-log trapezoidal method.

[8] abbreviates: compound 20 mpk BID PO 3 on/4 off + GMC 15 mpk QW IP.
[9] abbreviates: single agent, 20 mpk BID PO, 3on/4off.

Consider `C[C@@H]1COCCN1c1cc(C2(C#N)CCCC2)c2ccnc(-c3ccn[nH]3)c2n1` [Compound 27], for which the results for the IC50 in the data set with MIA PaCa-2 cells [1] and in the data set on MIA PaCa-2 cells [5] were 1 to 5 µM and 0.00148 µM, respectively. Besides, the “TGI(%)” value in data set [2] is 62.7%. In addition, the figures for the half-life at 1 μM in data set [3] and in data set [4] were 27.2 min and 9.14 min, respectively.
For the compound `C[C@@H]1COCCN1c1cc(C2(C#N)CCC(O)CC2)c2ccnc(-c3ccn[nH]3)c2n1` (stereo partly drawn) [Compound 33, (R)-4-hydroxy-1-(2-(3-methylmorpholine)-8-(1H-pyrazol-5-yl)-1,7-naphthyridin-4-yl)cyclohexane-1-carbonitrile], the half-inhibitory concentration (IC50) in the data set with MIA PaCa-2 cells [1] was < 1 µM. The “TGI(%)” value in data set [6] (setting [8]) is given as 82.3%. For the same compound, the “TGI(%)” value in data set [6] (setting [9]) was found to be 57.4%. The “TGI(%)” value in data set [2] was found to be 79.1%. Further, in data set [3], the half-life at 1 μM was determined as 632 min. Besides, the half-life at 1 μM in data set [4] turned out to be 19.6 min. In addition, the concentration for half-maximal inhibition (IC50) in the data set with MIA PaCa-2 cells [5] is 0.00108 µM. In data set [7] (Oral administration (10 mg/kg)), the AUC(0-t) turned out to be 937 ng·h/mL, the bioavailability was found to be 31.8%, the half-life was 41.4 min and the Cmax worked out at 1010 ng/mL. Also, the Tmax in data set [7] (Oral administration (10 mg/kg)) is 30 min. Further, in data set [7] (iv, Injection (2 mg/kg)), the AUC(0-t) was 588 ng·h/mL, the clearance came to 56.6 mL/min/kg, the half-life is 96.6 min and the Vd was 1.27 L/kg.
As to `C[C@@H]1COCCN1c1cc(C2(C#N)CCC(N(C)C)CC2)c2ccnc(-c3ccn[nH]3)c2n1` (stereo partly drawn) [Compound 34, (R)-4-(dimethylamino)-1-(2-(3-methylmorpholine)-8-(1H-pyrazol-5-yl)-1,7-naphthyridin-4-yl)cyclohexane-1-carbonitrile], the IC50 in the data set with MIA PaCa-2 cells [1] was < 1 µM; in the data set on MIA PaCa-2 cells [5], 0.000624 µM. The “TGI(%)” value in data set [6] (setting [8]) worked out at 78.1%; in data set [6] (setting [9]), 58.3%; in data set [2] it was 81.4%. The half-life at 1 μM was found to be 61.4 min in data set [3] and 52.4 min in data set [4].
For the compound `C[C@@H]1COCCN1c1cc(C2(C#N)CCC(N3CCCC3)CC2)c2ccnc(-c3ccn[nH]3)c2n1` (stereo partly shown) [Compound 35], the IC50 with MIA PaCa-2 cells [1] is < 1 µM; with MIA PaCa-2 cells [5], 0.000661 µM.
As to `C[C@@H]1COCCN1c1cc(C2(C#N)CCN(C)CC2)c2ccnc(-c3ccn[nH]3)c2n1` [Compound 43], the half-inhibitory concentration (IC50) in the data set with MIA PaCa-2 cells [1] is < 1 µM. Further, the “TGI(%)” value in data set [6] (setting [8]) was determined as 84.4%. Besides, the “TGI(%)” value in data set [6] (setting [9]) was determined as 51.2%. Moreover, in data set [2], the “TGI(%)” value turned out to be 75.3%. Besides, in data set [3], the half-life at 1 μM amounted to 9.44 min. Besides, the half-life at 1 μM in data set [4] was 18.9 min. Also, the IC50 in the data set with MIA PaCa-2 cells [5] was found to be 0.00124 µM. Besides, in data set [7] (Oral administration (10 mg/kg)), the AUC(0-t) worked out at 439 ng·h/mL, the bioavailability came to 35.5%, the half-life was 47.4 min and the maximum concentration (Cmax) stood at 616 ng/mL. Besides, the Tmax in data set [7] (Oral administration (10 mg/kg)) turned out to be 15 min. Also, in data set [7] (iv, Injection (2 mg/kg)), the AUC(0-t) was 247 ng·h/mL, the clearance was found to be 135 mL/min/kg, the half-life is 13.2 min and the Vd came to 1.79 L/kg.
On to `COC1CCC(C#N)(c2cc(N3CCOC[C@H]3C)nc3c(-c4ccn[nH]4)nccc23)CC1` (stereo partly drawn) [Compound 53, (R)-4-methoxy-1-(2-(3-methylmorpholine)-8-(1H-pyrazol-5-yl)-1,7-naphthyridin-4-yl)cyclohexane-1-carbonitrile], for which, in the data set on MIA PaCa-2 cells [1], the IC50 was < 1 µM. Moreover, the half-life at 1 μM in data set [3] worked out at 24.8 min. The half-life at 1 μM in data set [4] is 7.78 min. Further, in data set [7] (Oral administration (10 mg/kg)), the AUC(0-t) turned out to be 669 ng·h/mL, the bioavailability was determined as 30.2%, the half-life is 87 min and the maximum concentration (Cmax) was determined as 299 ng/mL. In data set [7] (Oral administration (10 mg/kg)), the Tmax was 30 min. Further, in data set [7] (iv, Injection (2 mg/kg)), the AUC(0-t) is 444 ng·h/mL, the clearance is 75.1 mL/min/kg, the half-life is 16.2 min and the Vd was determined as 1.61 L/kg.
`C[C@@H]1COCCN1c1cc(C2(C#N)CCN(C3CCCC3)CC2)c2ccnc(-c3ccn[nH]3)c2n1` [Compound 69]: the IC50 with MIA PaCa-2 cells [1] is < 1 µM. For the same compound, the figures for the half-life at 1 μM in data set [3] and in data set [4] were 5.9 min and 7.52 min, respectively.
Consider `CCOP(=O)(CCN1CCC(C#N)(c2cc(N3CCOC[C@H]3C)nc3c(-c4ccn[nH]4)nccc23)CC1)OCC` [Compound 81], for which the IC50 in the data set on MIA PaCa-2 cells [1] is < 1 µM.
As to `C[C@@H]1COCCN1c1cc(C2(C#N)CCN(CC3CC3)CC2)c2ccnc(-c3ccn[nH]3)c2n1` [Compound 82], the IC50 in the data set on MIA PaCa-2 cells [1] is < 1 µM.
Turning to `C[C@@H]1COCCN1c1cc(C2(C#N)CCN(CC3CCC3)CC2)c2ccnc(-c3ccn[nH]3)c2n1` [Compound 83], the IC50 with MIA PaCa-2 cells [1] was < 1 µM.
On the same count and under the same terms, with `C[C@@H]1COCCN1c1cc(C2(C#N)CCN(CC3CCOC3)CC2)c2ccnc(-c3ccn[nH]3)c2n1` (stereo partly shown) [Compound 84] the figure was < 1 µM; with `C[C@@H]1COCCN1c1cc(C2(C#N)CC3CCC(C2)O3)c2ccnc(-c3ccn[nH]3)c2n1` (stereo partly drawn) [Compound 85, 3-(2-((R)-3-methylmorpholino)-8-(1H-pyrazol-5-yl)-1,7-naphthyridin-4-yl)-8-oxabicyclo[3.2.1]octane-3-carbonitrile], < 1 µM.
For `Nc1ccn([C@@H]2O[C@H](CO)[C@@H](O)C2(F)F)c(=O)n1` [GMC, gemcitabine, reference compound], the “TGI(%)” value in data set [6] (GMC alone 15 mpk QW IP, once a week) worked out at 50.7%.
